One test concerns LOX. Briefly: Microculture tetrazolium assay. The settings on record: read-out: IC50. It is filed as cell-based.
Another test relates to T47D. Briefly: Microculture tetrazolium assay. It is filed as cell-based. The settings on record: Homo sapiens, read-out: IC50.
For another test, the system named is CNS. Briefly: NCI assay, average per cancer type. The settings on record: Homo sapiens.
The next test has as its system tumor cell lines. Kind of test: NCI sulforhodamine B assay, all cell lines. The settings on record: Homo sapiens.
A further test has as its system SC Lung. Briefly: NCI assay, average per cancer type. The settings on record: Homo sapiens.
For a further test, the system named is NSC Lung. Briefly: NCI assay, average per cancer type. The settings on record: Homo sapiens.
A further test concerns SKVLB. Briefly: Microculture tetrazolium assay. It is filed as cell-based. The settings on record: SKVLB; read-out: IC50.
A further test deals with Renal. Kind of test: NCI assay, average per cancer type. The settings on record: Homo sapiens.
Test [1] concerns HT29. Briefly: Microculture tetrazolium assay. It is filed as cell-based. The settings on record: Homo sapiens, HT-29, HT29; read-out: IC50.
The test system of the next test is Leukemia. Briefly: NCI assay, average per cancer type.
The subject of a further test is SKOV3. Kind of test: Microculture tetrazolium assay. It is filed as cell-based. The settings on record: Homo sapiens, SK-OV-3, SKOV3; read-out: IC50.
A further test deals with Ovarian. Kind of test: NCI assay, average per cancer type. The settings on record: Homo sapiens.
The test system of the next test is Colon. Kind of test: NCI assay, average per cancer type. The settings on record: Homo sapiens.
The next test relates to solid tumors. Briefly: NCI assay, mean potency in solid tumors. The settings on record: Homo sapiens.
The subject of the next test is Melanoma. Briefly: NCI assay, average per cancer type. The settings on record: Homo sapiens.
Test [2] concerns HT29. Briefly: Soft agar colony formation disk diffusion assay. The format is cell-based, human. The text has this:
A more elaborate version of this fundamental assay, the soft agar colony formation disk diffusion assay was used. […] The effect of the test drug against tumoral cells could be measured by its inhibitory capacity against colony formation after the delivery of the compound, in different concentrations on an filter disk(4). A modified technique of this assay was used in order to investigate the antiproliferative activity of candidate compounds. Tumoral cells from solid tumors and ascitic lines were plated separately in a two layer agar matrix. Cell lines to be tested were suspended in an upper layer of 0.4% Noble agar (Difco#00142-01) in RPMI-1066 (Gibco#3201875) at a yield varying between 10^4 to 2×10^5 cells per 60 mm Petri dish. Plating efficiency was determined for each line in order to achieve an optimal number of colonies per dish. […] The bottom layer consisted of 0.8% Noble agar, 0.8% Tryptic Soy Broth (difco#0037001)in CMRL-1066/Fischer's. The bottom layers were used within 2 and 9 days of preparation. Plated dishes (bottom layer of agar, upper layer of cells and administered drug were incubated in humidified atmosphere at 37° C., 5% CO2 for 10-20 days depending upon the time necessary to observe adequate colonies (defined as a cell aggregate of more than 50 cells) both control and drug inhibited. Drugs were administered on a paper filter disk (Whatman No. 1) of 6.5 mm diameter placed on the upper layer at 1/3 distance from the edge of the dish. The anti-clonogenic activity of the compounds was measured as the zone of inhibition from the disk edge to the most proximal colonies. This zone of inhibition was checked on an inverted microscope (40×) and was measured with a micrometer mounted in the eyepiece. The ocular micrometer was calibrated with a stage micrometer set for a particular combination of ocular and objective lenses. […] We made a modification of the initial technique by not plating a solid tumor and a leukemia simultaneously in the same Petri dish. […] HUMAN TUMORS. […] LS180 (13) and BE1(14) were obtained from the Oncology Dept. of the Montreal General Hospital. […] Cell lines were routinely passaged twice a week by trypsinization and maintained in 25, or 75-sq. cm Falcon Plastic flasks at 37° C., 5% CO2 in humidified atmosphere. Both compounds were dissolved in DMSO (1 mg/100 ul) and brought to final volume (250 ul) with Millipore deionized sterile water. Further dilutions were made with […] volume of 25 ul of freshly prepared solution was placed on the filter disk and allowed to dry.

The subject of another test is LS180. Briefly: Soft agar colony formation disk diffusion assay. It is filed as cell-based, human. The text has this:
(§1) A more elaborate version of this fundamental assay, the soft agar colony formation disk diffusion assay was used. This assay defines the relative activity of one particular drug versus a tumoral cell line type. The effect of the test drug against tumoral cells could be measured by its inhibitory capacity against colony formation after the delivery of the compound, in different concentrations on an filter disk(4). A modified technique of this assay was used in order to investigate the antiproliferative activity of candidate compounds. Tumoral cells from solid tumors and ascitic lines were plated separately in a two layer agar matrix. Cell lines to be tested were suspended in an upper layer of 0.4% Noble agar (Difco#00142-01) in RPMI-1066 (Gibco#3201875) at a yield varying between 10^4 to 2×10^5 cells per 60 mm Petri dish. Plating efficiency was determined for each line in order to achieve an optimal number of colonies per dish. Plates were examined before drug administration to confirm a uniform dispersion of single cells. The bottom layer consisted of 0.8% Noble agar, 0.8% Tryptic Soy Broth (difco#0037001)in CMRL-1066/Fischer's. The bottom layers were used within 2 and 9 days of preparation. Plated dishes (bottom layer of agar, upper layer of cells and administered drug were incubated in humidified atmosphere at 37° C., 5% CO2 for 10-20 days depending upon the time necessary to observe adequate colonies (defined as a cell aggregate of more than 50 cells) both control and drug inhibited. Drugs were administered on a paper filter disk (Whatman No. 1) of 6.5 mm diameter placed on the upper layer at 1/3 distance from the edge of the dish. The anti-clonogenic activity of the compounds was measured as the zone of inhibition from the disk edge to the most proximal colonies. This zone of inhibition was checked on an inverted microscope (40×) and was measured with a micrometer mounted in the eyepiece. The ocular micrometer was calibrated with a stage micrometer set for a particular combination of ocular and objective lenses. […] We made a modification of the initial technique by not plating a solid tumor and a leukemia simultaneously in the same Petri dish. Anti-clonogenic tests performed on leukemia cell line have helped in the discovery of the majority of current clinically used cytostatic drugs. Our tests on solid tumor lines (animal or human) may help define active compounds with solid tumor specificity. […] HUMAN TUMORS. […] LS180 (13) and BE1(14) were obtained from the Oncology Dept. of the Montreal General Hospital. […] Cell lines were routinely passaged twice a week by trypsinization and maintained in 25, or 75-sq. cm Falcon Plastic flasks at 37° C., 5% CO2 in humidified atmosphere. Both compounds were dissolved in DMSO (1 mg/100 ul) and brought to final volume (250 ul) with Millipore deionized sterile water. Further dilutions were made with […] volume of 25 ul of freshly prepared solution was placed on the filter disk and allowed to dry.
In general terms: Agar diffusion results depend on both activity and mobility in agar.

The test system of a further test is MCF7. Briefly: Soft agar colony formation disk diffusion assay. The format is cell-based, human.
Excerpt: as §1

In a further test the test system is MCF7/ADR. Kind of test: Soft agar colony formation disk diffusion assay. It is filed as cell-based, human.
Excerpt: as §1

In a further test the test system is P388/ADR. Briefly: Soft agar colony formation disk diffusion assay. The format is cell-based, murine. The text has this: (§2) A more elaborate version of this fundamental assay, the soft agar colony formation disk diffusion assay was used. This assay defines the relative activity of one particular drug versus a tumoral cell line type. The effect of the test drug against tumoral cells could be measured by its inhibitory capacity against colony formation after the delivery of the compound, in different concentrations on an filter disk(4). A modified technique of this assay was used in order to investigate the antiproliferative activity of candidate compounds. Tumoral cells from solid tumors and ascitic lines were plated separately in a two layer agar matrix. Cell lines to be tested were suspended in an upper layer of 0.4% Noble agar (Difco#00142-01) in RPMI-1066 (Gibco#3201875) at a yield varying between 10^4 to 2×10^5 cells per 60 mm Petri dish. Plating efficiency was determined for each line in order to achieve an optimal number of colonies per dish. Plates were examined before drug administration to confirm a uniform dispersion of single cells. The bottom layer consisted of 0.8% Noble agar, 0.8% Tryptic Soy Broth (difco#0037001)in CMRL-1066/Fischer's. The bottom layers were used within 2 and 9 days of preparation. Plated dishes (bottom layer of agar, upper layer of cells and administered drug were incubated in humidified atmosphere at 37° C., 5% CO2 for 10-20 days depending upon the time necessary to observe adequate colonies (defined as a cell aggregate of more than 50 cells) both control and drug inhibited. Drugs were administered on a paper filter disk (Whatman No. 1) of 6.5 mm diameter placed on the upper layer at 1/3 distance from the edge of the dish. The anti-clonogenic activity of the compounds was measured as the zone of inhibition from the disk edge to the most proximal colonies. This zone of inhibition was checked on an inverted microscope (40×) and was measured with a micrometer mounted in the eyepiece. The ocular micrometer was calibrated with a stage micrometer set for a particular combination of ocular and objective lenses. […] We made a modification of the initial technique by not plating a solid tumor and a leukemia simultaneously in the same Petri dish. Anti-clonogenic tests performed on leukemia cell line have helped in the discovery of the majority of current clinically used cytostatic drugs. Our tests on solid tumor lines (animal or human) may help define active compounds with solid tumor specificity. […] Murine tumors were maintained IN VIVO in order to diminish the selection of subpopulations of cells normally present in the heterogenous IN VIVO tumor. The actual drug sensitivity assay was done IN VITRO. For these experiments cells from freshly excised tumors or from ascitic fluids were maintained in RPMI-1066. Both compounds were dissolved in DMSO (1 mg/100 ul) and brought to final volume (250 ul) with Millipore deionized sterile water. Further dilutions were made with […] volume of 25 ul of freshly prepared solution was placed on the filter disk and allowed to dry.

A further test concerns M5076. Briefly: Soft agar colony formation disk diffusion assay. The format is cell-based, murine.
Excerpt: as §2

Another test deals with B16. Briefly: Soft agar colony formation disk diffusion assay. The format is cell-based, murine.
Excerpt: as §2

For the next test, the system named is P388. Briefly: Soft agar colony formation disk diffusion assay. The format is cell-based, murine.
Excerpt: as §2

A further test relates to MATB/ADR. Briefly: Soft agar colony formation disk diffusion assay. The format is cell-based, rat.
Excerpt: as §2

For the next test, the system named is MATB.WT. Briefly: Soft agar colony formation disk diffusion assay. It is filed as cell-based, rat.
Excerpt: as §2

Where [3] appears, read: 48 h, read-out: Average LOG10 LC50.

Results on 2 compounds are retold here after US5593970A, “Heterocyclic anthracycline analogs” (priority 1994, dated 1997).

The term IC50 denotes the concentration at which inhibition is half-maximal. For `CC(=O)C1Cc2c(O)c3c(c(O)c2CO1)C(=O)c1ccccc1C3=O` (stereo not shown) [BCH-688, Methyl-(5,12-dihydroxy-6,11-dioxo-3,4,6,11-tetrahydroanthraceno-[2,3-c]pyran-3-yl)ketone], the half-inhibitory concentration (IC50) in the test on LOX, in the test on T47D, in the test on SKVLB, in the test on HT29 [1] and with SKOV3 was 100 µM each time. In addition, the CC50 in the test on CNS (setting [3]) is greater than 100 µM; with tumor cell lines (48 h, read-out: Log10 LC50, Mean / MG-MID, all cell lines (converted)), 100 µM; in the test on SC Lung (setting [3]) it was greater than 100 µM; in the test on NSC Lung (setting [3]), greater than 100 µM; in the test on Renal (setting [3]), greater than 100 µM; in the test with Leukemia (setting [3]), greater than 100 µM. For the same compound, the CC50 with Ovarian (setting [3]) was greater than 100 µM; with Colon (setting [3]), greater than 100 µM; with solid tumors (48 h, read-out: Average LOG10 LC50, Mean Potency in solid tumors) it was greater than 100 µM; in the test with Melanoma (setting [3]), greater than 100 µM. Besides, the GI50 in the test with CNS (read-out: Average LOG10 GI50) was 53.7 µM; in the test on tumor cell lines (read-out: Log10 GI50, Mean / MG-MID, all cell lines (converted)), 75.9 µM; in the test with SC Lung (read-out: Average LOG10 GI50), greater than 100 µM; in the test with NSC Lung (read-out: Average LOG10 GI50), greater than 100 µM; in the test on Renal (read-out: Average LOG10 GI50), greater than 100 µM; with Leukemia (read-out: Average LOG10 GI50), 36.3 µM. The GI50 in the test on Ovarian (read-out: Average LOG10 GI50) is 75.9 µM; in the test on Colon (read-out: Average LOG10 GI50), greater than 100 µM; in the test on solid tumors (read-out: Average LOG10 GI50, Mean Potency in solid tumors), 52.5 µM; with Melanoma (read-out: Average LOG10 GI50), greater than 100 µM. Moreover, in the test on tumor cell lines (48 h, read-out: Log10 TGI, Mean / MG-MID, all cell lines), the IC100 was 97.7 µM.
Regarding `CCOC(=O)C1Cc2c(O)c3c(c(O)c2CS1)C(=O)c1ccccc1C3=O` (stereo not shown) [BCH-713, 3-carbethoxy-5,12-dihydroxy-1,2,3,4-tetrahydro-(2-sulfur)naphthacene-6,11-dione], the zone of inhibition in the test on HT29 [2] (10 μg/DISK) is 0 Zone Units; in the test on HT29 [2] (100 μg/DISK), 0 Zone Units; in the test on LS180 (10 μg/DISK) it was 0 Zone Units; in the test on LS180 (100 μg/DISK), 45.7 ± 21.5 Zone Units; with MCF7 (10 μg/DISK), 0 Zone Units; in the test with MCF7 (100 μg/DISK), 0 Zone Units. The zone of inhibition stood at 24.0 ± 8.6 Zone Units with MCF7/ADR (10 μg/DISK); 94.5 ± 64.7 Zone Units in the test with MCF7/ADR (100 μg/DISK); 0 Zone Units in the test with P388/ADR (10 μg/DISK); 61.0 ± 0.0 Zone Units in the test on P388/ADR (100 μg/DISK); 0 Zone Units in the test on M5076 (10 μg/DISK); 42.7 ± 8.6 Zone Units with M5076 (100 μg/DISK). The zone of inhibition in the test with B16 (10 μg/DISK) was 0 Zone Units; with B16 (100 μg/DISK), 24.4 ± 8.6 Zone Units; with P388 (10 μg/DISK), 0 Zone Units; with P388 (100 μg/DISK), 45.7 ± 21.5 Zone Units; with MATB/ADR (10 μg/DISK), 0 Zone Units; in the test with MATB/ADR (100 μg/DISK), 0 Zone Units. Further, the results for the zone of inhibition with MATB.WT (10 μg/DISK) and with MATB.WT (100 μg/DISK) were 0 Zone Units and 27.4 ± 4.3 Zone Units, respectively.
